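Each compound was tested at five concentrations against cells in 96-well plates for 48 hours. TGI: total growth inhibition.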
Assays:
Assay in all cases: inhibition of tumour cell growth, NCI panel, 48 h
HT29 colon = system: HT29 colon
SF-539 CNS = system: SF-539 CNS
HCC-2998 colon = system: HCC-2998 colon
OVCAR-4 ovarian = system: OVCAR-4 ovarian
HL-60(TB) leukemia = system: HL-60(TB) leukemia
KM12 colon = system: KM12 colon
SK-MEL-5 melanoma = system: SK-MEL-5 melanoma
MOLT-4 leukemia = system: MOLT-4 leukemia
HCT-15 colon = system: HCT-15 colon
SK-MEL-2 melanoma = system: SK-MEL-2 melanoma

Measured: TGI

CNC(C)Cc1ccccc1OC (stereo not given)
> 100 µM: all assays above

From PubChem BioAssay (NCI)
